The target in the assay is T1, human 4lg B7-H3 (Homo sapiens, UniProt Q5ZPR3).
T1 sequence (Q5ZPR3 29-534): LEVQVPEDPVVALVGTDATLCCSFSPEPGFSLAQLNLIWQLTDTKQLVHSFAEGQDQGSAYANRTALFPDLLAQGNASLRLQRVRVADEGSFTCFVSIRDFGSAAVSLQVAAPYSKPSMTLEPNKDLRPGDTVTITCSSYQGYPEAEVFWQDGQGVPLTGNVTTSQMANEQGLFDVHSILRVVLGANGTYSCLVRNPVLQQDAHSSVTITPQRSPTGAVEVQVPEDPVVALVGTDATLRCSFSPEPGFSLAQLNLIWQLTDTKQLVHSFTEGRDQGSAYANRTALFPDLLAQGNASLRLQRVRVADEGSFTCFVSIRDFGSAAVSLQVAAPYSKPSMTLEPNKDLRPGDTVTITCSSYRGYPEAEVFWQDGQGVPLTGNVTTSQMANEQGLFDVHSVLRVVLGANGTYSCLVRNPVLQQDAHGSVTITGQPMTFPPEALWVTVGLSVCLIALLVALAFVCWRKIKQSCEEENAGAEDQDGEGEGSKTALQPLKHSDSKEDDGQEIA
As to the kind of experiment: Affinity determination by surface plasmon resonance (SPR) to 4Ig B7-H3. To be noted: 4Ig B7-H3. (In general: SPR reads the build-up and loss of mass on a sensor chip optically.)

[1] abbreviates: SPR KD—37° C., 37° C. flow cell temperature.
Where [2] appears, read: SPR KD—25° C., 25° C. flow cell temperature.

Starred links: 1 amine or outer side, 2 acyl side, 3 side chain; linkers in the order of their positions; H or OH if unused. Positions of bridges follow the written chain, without caps; N, C: chain ends. Non-standard residues stand in square brackets, D forms with d. Residues, ends and D or L forms follow the SMILES beside them. Groups on a side chain read outwards from the residue. *: point of attachment. Ala(piperidin-4-yl) = O=C([C@H](CC1CCN([*:3])CC1)N[*:1])[*:2]; X10 = C[C@@H](c1c[nH]c2ccc(F)cc12)[C@H](N[*:1])C(=O)[*:2]; DOTA = O=C(O)CN1CCN(CC(=O)O)CCN(CC(=O)*)CCN(CC(=O)O)CC1; Trp(5-F) = N[C@@H](Cc1c[nH]c2ccc(F)cc12)C(=O)O; γGlu = O=C(O)[C@H](CCC(=O)[*:2])N[*:1]; 1Nal = N[C@@H](Cc1cccc2ccccc12)C(=O)O; Ala(4-THP) = N[C@@H](CC1CCOCC1)C(=O)O; Val(3-OH) = CC(C)(O)[C@H](N)C(=O)O; cisHyp = O=C(O)[C@@H]1C[C@H](O)CN1; NMeF = CN[C@@H](Cc1ccccc1)C(=O)O; Trx = NC[C@H]1CC[C@H](C(=O)O)CC1; hCha = N[C@@H](CCC1CCCCC1)C(=O)O; 3Pal = N[C@@H](Cc1cccnc1)C(=O)O; 4Pal = N[C@@H](Cc1ccncc1)C(=O)O; Cha = N[C@@H](CC1CCCCC1)C(=O)O; Tle = CC(C)(C)[C@H](N)C(=O)O; hLeu = CC(C)CC[C@H](N)C(=O)O; NMeS = CN[C@@H](CO)C(=O)O; Pip = O=C(O)[C@@H]1CCCCN1; Nle = CCCC[C@H](N)C(=O)O; PEG1 = NCCOCCC(=O)O

As for `CC(=O)N[C@@H](CCC(C)C)C(=O)N[C@@H](Cc1ccc(O)cc1)C(=O)N[C@H]1CSSC[C@@H](C(=O)N[C@@H](Cc2c[nH]c3ccc(F)cc23)C(=O)N[C@@H](Cc2ccccc2)C(=O)N[C@H](C(=O)N[C@H](CCCCNC(=O)CN2CCN(CC(=O)O)CCN(CC(=O)O)CCN(CC(=O)O)CC2)C(=O)O)C(C)(C)O)NC(=O)[C@H](Cc2ccc(O)cc2)NC(=O)[C@H](C(C)C)NC(=O)[C@H](CC(=O)O)NC(=O)[C@H](CC2CCOCC2)NC(=O)[C@@H]2CCCCN2C(=O)CNC(=O)[C@H](C(C)(C)C)NC1=O` [compound 350, Ac-hLeu-Y-C-Tbg-G-Pip-ThpA-D-V-Y-C-5FW-F-hydroxyVal-dLys(DOTA)-COOH] (Ac-[hLeu]YC[Tle]G[Pip][Ala(4-THP)]DVYC[Trp(5-F)]F[Val(3-OH)][dK](DOTA)-OH; disulfide 3-11), the Kd (as a rule, a measure of binding affinity in units of concentration) under setting [1] lay within 10 to 100 nM.
In the case of `CC(=O)N[C@@H](CCC(C)C)C(=O)N[C@@H](Cc1ccc(O)cc1)C(=O)N[C@H]1CSSC[C@@H](C(=O)N[C@@H](Cc2c[nH]c3ccc(F)cc23)C(=O)N[C@@H](Cc2ccccc2)C(=O)N(C)[C@@H](CO)C(=O)N[C@H](CCCCNC(=O)CN2CCN(CC(=O)O)CCN(CC(=O)O)CCN(CC(=O)O)CC2)C(N)=O)NC(=O)[C@H](Cc2ccc(O)cc2)NC(=O)[C@H](C(C)C)NC(=O)[C@H](CC(=O)O)NC(=O)[C@H](CC2CCCCC2)NC(=O)[C@H](CC2CCNCC2)NC(=O)CNC(=O)[C@H](C(C)C)NC1=O` [compound 236, Ac-hLeu-Y-C-V-G-PipAla-CHA-D-V-Y-C-5FW-F-NMeSer-dLys(DOTA)-CONH2] (Ac-[hLeu]YCVG[Ala(piperidin-4-yl)][Cha]DVYC[Trp(5-F)]F[NMeS][dK](DOTA)-NH2; disulfide 3-11), under setting [2], the Kd is below 1 nM.
On to `CC(=O)N[C@@H](CCC1CCCCC1)C(=O)N[C@@H](Cc1ccc(O)cc1)C(=O)N[C@H]1CSSC[C@@H](C(=O)N[C@@H](Cc2c[nH]c3ccc(F)cc23)C(=O)N[C@@H](Cc2ccccc2)C(=O)N[C@H](C(=O)N[C@H](C)C(=O)O)C(C)(C)O)NC(=O)[C@H](Cc2ccc(O)cc2)NC(=O)[C@H](C(C)C)NC(=O)[C@H](CC(=O)O)NC(=O)[C@H](CC2CCOCC2)NC(=O)[C@H](CC2CCN(C(=O)CC[C@H](NC(=O)CC[C@H](NC(=O)CN3CCN(CC(=O)O)CCN(CC(=O)O)CCN(CC(=O)O)CC3)C(=O)O)C(=O)O)CC2)NC(=O)CNC(=O)[C@H](C(C)(C)C)NC1=O` [compound 487, Ac-hCha-Y-C-Tbg-G-Pip(gE-gE-DOTA)Ala-ThpA-D-V-Y-C-5FW-F-hydroxyVal-dAla-COOH] (Ac-[hCha]YC[Tle]G[Ala(piperidin-4-yl)]([γGlu-γGlu-DOTA])[Ala(4-THP)]DVYC[Trp(5-F)]F[Val(3-OH)][dA]-OH; disulfide 3-11), for which, under setting [1], the Kd is below 1 nM.
Turning to `CC(=O)N[C@@H](CCC(C)C)C(=O)N[C@@H](Cc1ccc(O)cc1)C(=O)N[C@H]1CSSC[C@@H](C(=O)N[C@@H](Cc2c[nH]c3ccc(F)cc23)C(=O)N(C)[C@@H](Cc2ccccc2)C(=O)N[C@H](C(=O)N[C@H](CCCCNC(=O)CN2CCN(CC(=O)O)CCN(CC(=O)O)CCN(CC(=O)O)CC2)C(N)=O)[C@@H](C)O)NC(=O)[C@H](Cc2ccc(O)cc2)NC(=O)[C@H](C(C)C)NC(=O)[C@H](CC(=O)O)NC(=O)[C@H](Cc2ccc(O)cc2)NC(=O)[C@H](CCCCN)NC(=O)CNC(=O)[C@H](C(C)C)NC1=O` [compound 205, Ac-hLeu-Y-C-V-G-K-Y-D-V-Y-C-5FW-NMePhe-Thr-dLys(DOTA)-CONH2] (Ac-[hLeu]YCVGKYDVYC[Trp(5-F)][NMeF]T[dK](DOTA)-NH2; disulfide 3-11), under setting [2], the Kd lay within 1 to 10 nM.
Turning to `CCCC[C@H](NC(C)=O)C(=O)N[C@@H](Cc1ccc(O)cc1)C(=O)N[C@H]1CSSC[C@@H](C(=O)N[C@@H](Cc2c[nH]c3ccccc23)C(=O)N[C@@H](Cc2ccccc2)C(N)=O)NC(=O)[C@H](Cc2ccc(O)cc2)NC(=O)[C@H](C(C)C)NC(=O)[C@H](CC(=O)O)NC(=O)[C@H](Cc2ccc(O)cc2)NC(=O)[C@H](CCCCN)NC(=O)CNC(=O)[C@H](C(C)C)NC1=O` [Cpd #7, Ac-Nle-Y-C-V-G-K-Y-D-V-Y-C-W-F-CONH2] (Ac-[Nle]YCVGKYDVYCWF-NH2; disulfide 3-11), the Kd under setting [1] lay within 10 to 100 nM.
`CC(=O)N[C@@H](CCC(C)C)C(=O)N[C@@H](Cc1ccc(O)cc1)C(=O)N[C@H]1CSSC[C@@H](C(=O)N[C@@H](Cc2c[nH]c3ccc(F)cc23)C(=O)N[C@@H](Cc2ccccc2)C(=O)N[C@H](C(=O)N[C@H](CCCCNC(=O)CN2CCN(CC(=O)O)CCN(CC(=O)O)CCN(CC(=O)O)CC2)C(N)=O)[C@@H](C)O)NC(=O)[C@H](Cc2cccnc2)NC(=O)[C@H](C(C)C)NC(=O)[C@H](CC(=O)O)NC(=O)[C@H](Cc2ccc(O)cc2)NC(=O)[C@H](CCCCN)NC(=O)CNC(=O)[C@H](C(C)C)NC1=O` [compound 170, Ac-hLeu-Y-C-V-G-K-Y-D-V-3PyA-C-5FW-F-Thr-dLys(DOTA)-CONH2] (Ac-[hLeu]YCVGKYDV[3Pal]C[Trp(5-F)]FT[dK](DOTA)-NH2; disulfide 3-11) had a Kd under setting [2] of 1 to 10 nM.
`CC(=O)N[C@@H](CCC(C)C)C(=O)N[C@@H](Cc1ccc(O)cc1)C(=O)N[C@H]1CSSC[C@@H](C(=O)N[C@@H](Cc2c[nH]c3ccc(F)cc23)C(=O)N[C@@H](Cc2ccccc2)C(=O)N[C@H](C(=O)N[C@H](CCCCNC(=O)CC[C@H](NC(=O)[C@H]2CC[C@H](CNC(=O)CN3CCN(CC(=O)O)CCN(CC(=O)O)CCN(CC(=O)O)CC3)CC2)C(=O)O)C(=O)O)C(C)(C)O)NC(=O)[C@H](Cc2ccc(O)cc2)NC(=O)[C@H](C(C)C)NC(=O)[C@H](CC(=O)O)NC(=O)[C@H](CC2CCOCC2)NC(=O)[C@H](CC2CCNCC2)NC(=O)CNC(=O)[C@H](C(C)(C)C)NC1=O` [compound 481, Ac-hLeu-Y-C-Tbg-G-PipAla-ThpA-D-V-Y-C-5FW-F-hydroxyVal-dLys(gE-tranexamate-DOTA)-COOH] (Ac-[hLeu]YC[Tle]G[Ala(piperidin-4-yl)][Ala(4-THP)]DVYC[Trp(5-F)]F[Val(3-OH)][dK]([γGlu-Trx-DOTA])-OH; disulfide 3-11) displayed a Kd under setting [1] below 1 nM.
In turn, `CC(=O)N[C@@H](CCC(C)C)C(=O)N[C@@H](Cc1ccc(O)cc1)C(=O)N[C@H]1CSSC[C@@H](C(=O)N[C@@H](Cc2cccc3ccccc23)C(=O)N[C@@H](Cc2ccccc2)C(=O)N(C)[C@@H](CO)C(=O)N[C@H](CCCCNC(=O)CN2CCN(CC(=O)O)CCN(CC(=O)O)CCN(CC(=O)O)CC2)C(N)=O)NC(=O)[C@H](CC2CCCCC2)NC(=O)[C@H](C(C)C)NC(=O)[C@H](CC(=O)O)NC(=O)[C@H](Cc2ccncc2)NC(=O)[C@H](CCCCN)NC(=O)CNC(=O)[C@H](C(C)(C)C)NC1=O` [compound 220, Ac-hLeu-Y-C-Tbg-G-K-4PyA-D-V-Cha-C-1Nal-F-NMeSer-dLys(DOTA)-CONH2] (Ac-[hLeu]YC[Tle]GK[4Pal]DV[Cha]C[1Nal]F[NMeS][dK](DOTA)-NH2; disulfide 3-11) came in with a Kd under setting [2] of 10 to 100 nM.
Consider `CC(=O)N[C@@H](CCC(C)C)C(=O)N[C@@H](Cc1ccc(O)cc1)C(=O)N[C@H]1CSSC[C@@H](C(=O)N[C@H](C(=O)N[C@@H](Cc2ccccc2)C(=O)N[C@H](C(=O)N[C@H](CCCCNC(=O)CN2CCN(CC(=O)O)CCN(CC(=O)O)CCN(CC(=O)O)CC2)C(=O)O)C(C)(C)O)[C@@H](C)c2c[nH]c3ccc(F)cc23)NC(=O)[C@H](Cc2ccc(O)cc2)NC(=O)[C@H](C(C)C)NC(=O)[C@H](CC(=O)O)NC(=O)[C@H](CC2CCOCC2)NC(=O)[C@H](CC2CCNCC2)NC(=O)CNC(=O)[C@H](C(C)(C)C)NC1=O` [compound 450, Ac-hLeu-Y-C-Tbg-G-PipAla-ThpA-D-V-Y-C-(2S,3S-betaMe-5FW)-F-hydroxyVal-dLys(DOTA)-COOH] (Ac-[hLeu]YC[Tle]G[Ala(piperidin-4-yl)][Ala(4-THP)]DVYC[X10]F[Val(3-OH)][dK](DOTA)-OH; disulfide 3-11), for which the Kd under setting [1] lay within 1 to 10 nM.
Turning to `CC(C)CC[C@H](NC(=O)CCOCCNC(=O)[C@H](CCC(=O)O)NC(=O)CN1CCN(CC(=O)O)CCN(CC(=O)O)CCN(CC(=O)O)CC1)C(=O)N[C@@H](Cc1ccc(O)cc1)C(=O)N[C@H]1CSSC[C@@H](C(=O)N[C@@H](Cc2c[nH]c3ccc(F)cc23)C(=O)N[C@@H](Cc2ccccc2)C(=O)N[C@H](C(N)=O)C(C)(C)O)NC(=O)[C@H](Cc2ccc(O)cc2)NC(=O)[C@H](C(C)C)NC(=O)[C@H](CC(=O)O)NC(=O)[C@H](CC2CCOCC2)NC(=O)[C@H](CCCCN)NC(=O)CNC(=O)[C@H](C(C)(C)C)NC1=O` [compound 394, DOTA-Glu-PEG1-hLeu-Y-C-Tbg-G-K-ThpA-D-V-Y-C-5FW-F-hydroxyVal-CONH2] ({DOTA}-E[PEG1][hLeu]YC[Tle]GK[Ala(4-THP)]DVYC[Trp(5-F)]F[Val(3-OH)]-NH2; disulfide 5-13), under setting [1], the Kd lay in the range of 1 to 10 nM.
`CC[C@H](C)[C@@H]1NC(=O)[C@@H](NC(=O)[C@H](Cc2ccc(O)cc2)NC(=O)[C@H](CCC(C)C)NC(C)=O)CSSC[C@@H](C(=O)N[C@@H](Cc2c[nH]c3ccc(F)cc23)C(=O)N[C@@H](Cc2ccccc2)C(=O)N2C[C@@H](O)C[C@H]2C(N)=O)NC(=O)[C@H](Cc2ccc(O)cc2)NC(=O)[C@H](C(C)C)NC(=O)[C@H](CC(=O)O)NC(=O)[C@H](Cc2ccncc2)NC(=O)[C@H](CCCCNC(=O)CN2CCN(CC(=O)O)CCN(CC(=O)O)CCN(CC(=O)O)CC2)NC(=O)CNC1=O` [compound 251, Ac-hLeu-Y-C-Ile-G-Lys(DOTA)-4PyA-D-V-Y-C-5FW-F-(cisHyp)-CONH2] (Ac-[hLeu]YCIGK(DOTA)[4Pal]DVYC[Trp(5-F)]F[cisHyp]-NH2; disulfide 3-11): under setting [2], the Kd is 1 to 10 nM.
